Laboratory results from PubChem BioAssay (NCI).
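Assay format: 96-well plates, 48-hour exposure. TGI denotes the concentration required for complete inhibition of growth.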 Where a SMILES comes first, the peptide text is derived from it. Side-chain parts run from the residue outwards. The star is where a group is joined. Cbz = O=C(OCc1ccccc1)*; Boc = CC(C)(C)OC(=O)*

Key:
Experiment in all cases: DTP human tumour cell line panel, 48 h
SW-620 colon = test system: SW-620 colon
K-562 leukemia = test system: K-562 leukemia
786-0 renal = test system: 786-0 renal
TK-10 renal = test system: TK-10 renal
HCT-15 colon = test system: HCT-15 colon
EKVX NSCLC = test system: EKVX NSCLC
SK-MEL-2 melanoma = test system: SK-MEL-2 melanoma
NCI/ADR-RES ovarian = test system: NCI/ADR-RES ovarian

SMILES	TGI (SW-620 colon)	TGI (K-562 leukemia)	TGI (786-0 renal)	TGI (TK-10 renal)	TGI (HCT-15 colon)	TGI (EKVX NSCLC)	TGI (SK-MEL-2 melanoma)	TGI (NCI/ADR-RES ovarian)
C=CCOCn1ccc(N)nc1=O	> 100 µM	> 100 µM	> 100 µM	> 100 µM	> 100 µM	> 100 µM		
COc1ccc(C2=NNC(c3cc4cc(Br)ccc4nc3Cl)C2)cc1 (stereo unspecified)	> 25 µM	> 25 µM	> 25 µM			> 25 µM	> 25 µM	
O=C1C=C(O)c2c(O)ccc(O)c2C1=O	> 100 µM	> 100 µM	> 100 µM	> 100 µM	> 100 µM		> 100 µM	> 100 µM
CC(=O)OCC1OC(SC2=NC(=O)/C(=C/c3ccccc3)S2)C(OC(C)=O)C(OC(C)=O)C1OC(C)=O (stereo unspecified)	74.1 µM		30.8 µM		> 100 µM	70.4 µM	> 100 µM	84 µM
COc1ccc(-c2nc(-c3cnccn3)n(Cc3ccccc3)n2)cc1	> 100 µM	> 100 µM	> 100 µM		> 100 µM			> 100 µM
N#CCc1nc2cc(C(F)(F)F)ccc2s1	> 100 µM		> 100 µM	> 100 µM	> 100 µM	> 100 µM		> 100 µM
S=C(N/N=C(\C(=N/NC(=S)N1CCCCC1)c1ccccn1)c1ccccn1)N1CCCCC1	> 100 µM	> 100 µM	> 100 µM	> 100 µM	> 100 µM	> 100 µM		> 100 µM
CC1(C)CN=CC(C)(OCc2ccccc2)C(=O)NC(C)(C)CN=CC(C)(OCc2ccccc2)C(=O)N1 (stereo unspecified)	> 10 µM	> 10 µM	> 10 µM	> 10 µM	> 10 µM	> 10 µM	> 10 µM	
CC1=CC(=O)/C(=C/n2c(=S)[nH]c3cc(C)ccc32)C(=O)O1	> 100 µM		> 100 µM	> 100 µM	> 100 µM	> 100 µM	> 100 µM	> 100 µM
CN(C)CC1CCCc2ccccc2C1=O (stereo unspecified)			2.8 µM	14.7 µM	4.55 µM	3.4 µM	4 µM	17.5 µM
COc1ccc(C2C(C#N)=C(S)N(C3OC(CO)C(O)C(O)C3O)C(C)=C2C(C)=O)cc1 (stereo unspecified)	> 100 µM	> 100 µM	> 100 µM	> 100 µM	> 100 µM		> 100 µM	> 100 µM
NC1=Nc2ccccc2Sc2nc3ccccc3n21	> 100 µM	> 100 µM	5.23 µM	> 100 µM	> 100 µM			> 100 µM
O=C(CC(c1ccccc1)C(C(=O)c1ccncc1)C(CC(=O)c1ccncc1)c1ccccc1)c1ccncc1 (stereo unspecified)	> 100 µM		> 100 µM	> 100 µM	> 100 µM	> 100 µM	> 100 µM	> 100 µM
O=C(CSCC(=O)N/N=C\c1ccccc1F)N/N=C\c1ccccc1F	> 100 µM		> 100 µM	> 100 µM	> 100 µM	> 100 µM	> 100 µM	63.1 µM
O=c1c2cc(I)ccc2nc(SCc2nnco2)n1Cc1ccccc1	> 100 µM		> 100 µM	> 100 µM	> 100 µM	> 100 µM	> 100 µM	> 100 µM
CC(C)(C)OC(=O)NC(CCCCNC(=O)CNC(=O)OCc1ccccc1)C(=O)NC(CCCCNC(=O)CNC(=O)OCc1ccccc1)C(=O)NC(CCCCNC(=O)CNC(=O)OCc1ccccc1)C(=O)NC(CCCCNC(=O)CNC(=O)OCc1ccccc1)C(=O)O (stereo unspecified) (Boc-K([Gly-Cbz])K([Gly-Cbz])K([Gly-Cbz])K([Gly-Cbz])-OH; configuration not given here)	> 100 µM	> 100 µM	> 100 µM	> 100 µM	> 100 µM		> 100 µM	
COc1cc(O)cc(O)c1C(=O)CC(Cl)(Cl)Cl	> 100 µM	> 100 µM	> 100 µM	> 100 µM	> 100 µM	> 100 µM		> 100 µM
COc1cc([C@@H]2c3cc4c(cc3[C@@H](c3c(O)cc(O)c5c3O[C@H](c3ccc(O)c(O)c3)[C@H](OC(=O)c3cc(O)c(O)c(O)c3)C5)[C@H]3COC(=O)[C@H]23)OCO4)cc(OC)c1O	> 100 µM		> 100 µM	> 100 µM	> 100 µM	> 100 µM	> 100 µM	> 100 µM
O=C1CC(C(COCc2ccccc2)OCc2ccccc2)CC(=O)N1 (stereo unspecified)	> 100 µM	> 100 µM	> 100 µM	> 100 µM	> 100 µM	> 100 µM		
O=C(/C=C/c1ccccc1)Oc1cccc(Br)c1	> 100 µM		> 100 µM	> 100 µM	42.2 µM	> 100 µM	> 100 µM	> 100 µM
Cc1c2cccc-2c(OCCOC(=O)n2ccnc2)cc2c1[nH]c1ccccc12	14.4 µM	21.7 µM	19.9 µM	14.4 µM	5.95 µM	4.18 µM	5.48 µM	
